Consider two substances from paper PMC9570017, “Unorthodox PCNA Binding by Chromatin Assembly Factor 1” (International Journal of Molecular Sciences, 2022).

One series addresses T1, human PCNA (Homo sapiens, UniProt P12004).
T1 construct: His6 (C); made in house; host or cells: E. coli Codon Plus BL21(DE3) pLysS
In words: Isothermal titration calorimetry (ITC), PIP peptide titrated into wild-type PCNA. In kind it is binding. From the text:
The wild-type and R426D peptides were expressed as GST fusions in E. coli, purified to homogeneity (see Materials and Methods) and used in isothermal titration calorimetry (ITC) assays with human PCNA purified from E. coli.
Recombinant PCNA, PCNA-Y250I, and the PIP peptides (wild-type, R426D) were expressed and purified as described in the Supplementary Materials section—“Expression and purification of recombinant proteins”. The proteins were dialyzed against three 4-litre changes of ITC buffer containing 10 mM sodium phosphate, pH 7.0, and 10 mM NaCl at 4 °C overnight. The concentrations of PCNA and PIP peptides were determined by measuring tyrosine absorption at A280nm. ITC titrations of peptides into PCNA were performed at 23 °C in the ITC buffer (10 mM sodium phosphate, pH 7.0, 10 mM NaCl) using a MicroCal VP-ITC system. The concentrations of injected wild-type and mutant PIP in the syringe varied from 200 to 500 μM, whereas PCNA in the ITC sample cell varied depending on the experiment from 20 to 50 μM PCNA monomer. The protein and peptide samples were degassed before the ITC run. Data analysis was performed using the MicroCal Origin 7.0 software (OriginLab Corporation, Northampton, MA, USA) and all experiments fit the single binding site model.
Supplementary Materials-Expression and purification of recombinant proteins
S1. Expression and purification of GST-PIP fusion proteins in Escherichia coli Wild-type p150 PIP and R426D peptides were constructed as GST-fusion proteins with a tyrosine at the C-terminus of the peptide. The C-terminal tyrosine was added to aid in peptide detection during the purification by measuring the absorbance at 280 nm. The DNA fragments encoding the GST fusion proteins were inserted into a pGEX-TEV vector, which is essentially a modified pGEX-2T vector where the thrombin cleavage site was replaced with a TEV cleavage site. The pGEX-TEV plasmid was digested with BamHI and EcoRI and ligated to DNA fragments encoding either the p150 PIP wild-type and R426D. The plasmids pGEX-TEV-PIP wild type and pGEX-TEV-PIP R426D were con-firmed by DNA sequencing and then expressed in Escherichia coli host strain TOPP2 (Strat-agene) with 100 µg/ml ampicillin to saturation at 37°C. The next day, the saturated cells were diluted to 0.05 OD measured at A600 nm and the cells were grown at 37°C until the cells reach the mid-exponential phase of 0.6-0.8 at OD A600 nm. The cells were then in-duced with 1 mM isopropyl-D-thiogalactopyranoside (IPTG) for 4 h. Eight litres of cell culture were grown each for the wild-type and R426D mutant. The cells were then har-vested by centrifugation in an Avanti J-26XP high-performance centrifuge from Beckman Coulter with a fixed angle rotor (JLA-8.1000) at 9000 x g for 30 min at 4°C. The pellet from 1 litre cells equivalent was lysed in 10 ml of lysis buffer containing 20 mM Tris pH 7.5, 1 M NaCl, 0.2 mM EDTA, 1 mM DTT, 50 µg/ml lysozyme, 1 mM AEBSF and one tablet of cOmplete™ Mini EDTA-free Protease Inhibitor Cocktail Tablets (Roche). The cell pellet was sonicated in the lysis buffer on ice, at power output level 4 with 10 seconds pulse on and 30 seconds off at 6 watts using a Misonix 3000 Ultrasonic cell disruptor and wider probe. The lysate was clarified by centrifugation for 30 min in an Avanti J-26XP with a fixed angle rotor 25.50 at 30966 x g at 4°C. The clarified supernatant was incubated on a nutator for 6 h at 4°C with 10 ml of glutathione-Sepharose (GSH) resin (Amersham) pre-washed and equilibrated with lysis buffer. After incubation the GSH resin was pelleted, the unbound supernatant was removed, and the resin was washed thrice with lysis buffer and twice with Tobacco Etch Virus (TEV) protease buffer (20 mM sodium phosphate pH 6.5, 50 mM NaCl, 2 mM DTT). The peptide was cleaved from the GSH resin by incubating in the presence of TEV protease overnight at 4°C. The next day, the supernatant was har-vested by centrifugation, and the GSH resin was washed twice with 20 mM sodium phos- […]
A general note: Isothermal titration calorimetry measures the heat released or taken up as one component is titrated into another.

Another series has as its system PCNA-Y250I. In words: Isothermal titration calorimetry (ITC), wild-type PIP titrated into PCNA-Y250I. The series is classed as binding, human. The following applies: 23 °C, 10 mM sodium phosphate, pH 7.0, 10 mM NaCl. As for the experimental part:
Recombinant PCNA, PCNA-Y250I, and the PIP peptides (wild-type, R426D) were expressed and purified as described in the Supplementary Materials section—“Expression and purification of recombinant proteins”. The proteins were dialyzed against three 4-litre changes of ITC buffer containing 10 mM sodium phosphate, pH 7.0, and 10 mM NaCl at 4 °C overnight. The concentrations of PCNA and PIP peptides were determined by measuring tyrosine absorption at A280nm. ITC titrations of peptides into PCNA were performed at 23 °C in the ITC buffer (10 mM sodium phosphate, pH 7.0, 10 mM NaCl) using a MicroCal VP-ITC system. The concentrations of injected wild-type and mutant PIP in the syringe varied from 200 to 500 μM, whereas PCNA in the ITC sample cell varied depending on the experiment from 20 to 50 μM PCNA monomer. The protein and peptide samples were degassed before the ITC run. Data analysis was performed using the MicroCal Origin 7.0 software (OriginLab Corporation, Northampton, MA, USA) and all experiments fit the single binding site model. […]
S1. […] The C-terminal tyrosine was added to aid in peptide detection during the purification by measuring the absorbance at 280 nm. […] The next day, the saturated cells were diluted to 0.05 OD measured at A600 nm and the cells were grown at 37°C until the cells reach the mid-exponential phase of 0.6-0.8 at OD A600 nm. […]

Series [1] in a line: Size exclusion chromatography of PCNA-Y250I. The series is classed as physicochemical. The method, then:
S3. Expression and purification of wild-type and mutant PCNA proteins in Escherichia […]
PCNA wild-type and mutants were expressed and purified as previously reported. In short, wild-type or mutant plasmids in pET23-C-His6-PCNA vectors were trans-formed and expressed in Codon Plus BL21(DE3) pLysS E. coli (Stratagene) cells. Single colonies were inoculated and grown overnight in the Luria-Bertani medium containing 100 µg/mL ampicillin to saturation at 37°C. The next day the cells were diluted and grown to mid-exponential phase (0.6-0.8) at OD600 nm, and the expression was induced with 1 mM isopropyl-β-D-thiogalactopyranoside (IPTG) for 4 h. PCNA mutants were transformed and expressed in a similar way.
Cells were spun in an Avanti J-26XP high performance centrifuge from Beckman Coul-ter with a fixed angle rotor (JLA-8.1000) at 9000 x g for 30 min at 4°C and the pellets from 1 litre of cell culture were resuspended in 50 mL of lysis buffer containing 50 mM sodium phosphate pH 8.0, 150 mM NaCl, 10% glycerol, 20 mM imidazole, 0.02% nonidet P-40, 2 mM DTT. […]
The eluate was subsequently purified with a Superdex™ 200 gel filtration column (GE Healthcare) in gel filtration buffer 20 mM Tris pH 7.5, 150 mM NaCl, 1 mM DTT. The fractions corresponding to PCNA homotrimer were pooled, concentrated with an amicon concentrator with 3 kDa MWCO, quantified using absorbance at A280 nm, and stored at - […]
For orientation: Size exclusion chromatography separates by hydrodynamic size, large species first.

[2] abbreviates: ITC at 296 K, 10 mM Na-phosphate (pH 7.0), 10 mM NaCl.

T1 sequence (P12004 whole entry): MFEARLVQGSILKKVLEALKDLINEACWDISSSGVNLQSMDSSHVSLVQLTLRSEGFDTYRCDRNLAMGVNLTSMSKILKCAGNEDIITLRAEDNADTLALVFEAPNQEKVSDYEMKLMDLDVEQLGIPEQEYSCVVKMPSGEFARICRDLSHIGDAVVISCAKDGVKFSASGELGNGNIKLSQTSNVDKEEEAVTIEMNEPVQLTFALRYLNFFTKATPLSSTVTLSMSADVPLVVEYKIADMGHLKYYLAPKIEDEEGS

The Kd is the equilibrium constant for the complex coming apart. Regarding “KAEITRFF [CAF-1 PIP wild type, wild-type p150 PIP expressed as GST fusion with C-terminal tyrosine, TEV-cleaved and purified, used for ITC]”, at human PCNA (setting [2]), the “N (stoichiometry of peptide binding per PCNA monomer)” value is 0.83, the ΔG is -6.25 kcal/mol, the ΔH was -1.868 kcal/mol and the ΔS is given as 14.8 cal K^−1 mol^−1. For the same substance, at human PCNA (ITC at 296 K, 10 mM Na-phosphate (pH 7.0), 10 mM NaCl, one binding site per PCNA monomer, PIP 200 to 500 μM in syringe, PCNA 20 to 50 μM monomer), the Kd amounted to 24 µM. Also, on human PCNA (ITC, 23 °C, 10 mM sodium phosphate, pH 7.0, 10 mM NaCl), the “stoichiometry (PIP per PCNA monomer)” value is 0.83. In addition, in the series with PCNA-Y250I, the “heat exchange / binding to PCNA-Y250I” value is on record as “no detectable heat exchange observed by ITC”.

Consider “PCNA-Y250I: PCNA mutated at the tyrosine involved in the cation-π interaction with CAF-1 p150 Arg426”, for which the aggregation entry in series [1] is given as “no evidence of aggregation”.
